{
  "source": "paper PMC9598656",
  "about": "“In Vitro Activity of Robenidine Analogues NCL259 and NCL265 against Gram-Negative Pathogens” (Antibiotics, 2022)",
  "key": {"[1]": {"test_system": "Wild-type (E. coli BW 25113)", "assay": "MIC, efflux-pump wild-type", "type": "cell-based", "settings": "Escherichia coli; Wild-type (E. coli BW 25113); read-out: MIC Values", "method": "(§1) A variety of Gram-negative reference strains (E. coli ATCC 25922, E. coli ATCC 10763, P. aeruginosa PAO1, P. aeruginosa ATCC 27853, A. baumannii ATCC 12457, A. baumannii ATCC 19606, K. pneumoniae ATCC 4352 and K. pneumoniae ATCC 33495) were used for initial screening and combination testing with PMB. The organisms were speciated using biochemical testing and MALDI-TOF mass spectrometry (Bruker, Preston, VIC, Australia). Activity testing of NCL259 and NCL265 was also carried out on 51 extraintestinal clinical E. coli isolates from companion animals, and 83 porcine and bovine enterotoxigenic E. coli (ETEC) isolates from the Australian Centre for Antimicrobial Resistance Ecology collection. E. coli wild-type (BW 25113) and its mutant BW 25113∆AcrB, in which the inner membrane component AcrB of the tripartite multidrug efflux system AcrA/AcrB/TolC has been deleted, were obtained from the bacterial collection held at Health and Biomedical Innovation, Clinical and Health Sciences, The University of South Australia. All isolates were cultured on sheep blood agar (SBA) plates at 37 °C for 18 h before being subcultured into Luria Bertaini (LB) (Oxoid, Scoresby, VIC, Australia) broth and grown to A600nm = 0.5 (equivalent to approx. 1.5 × 10^8 colony-forming units (CFU)/mL).\nMICs for NCL259 and NCL265 (serial two-fold dilutions commencing at 256 µg/mL) were determined (in duplicate) in round bottom 96–well microtitre trays (Sarstedt 82.1582.001), using the broth micro-dilution method recommended by the Clinical and Laboratory Standards Institute (CLSI). We have shown previously that robenidine can chelate calcium ions from cation-adjusted Mueller-Hinton broth, which causes the loss of activity of robenidine. Therefore, LB broth was used in this study. […] The MIC for ampicillin against each isolate was determined for each test to serve as an internal quality control. The MICs of isolates were determined by visual reading and using an EnSpire Multimode Plate Reader 2300 at A600nm."}, "E. coli BW 25113 (∆AcrB)": {"test_system": "E. coli BW 25113 (∆AcrB)", "assay": "MIC, efflux-pump mutant", "type": "cell-based, Escherichia coli", "settings": "Escherichia coli, read-out: MIC Values", "method": "as §1\nMICs for NCL259 and NCL265 (serial two-fold dilutions commencing at 256 µg/mL) were determined (in duplicate) in round bottom 96–well microtitre trays (Sarstedt 82.1582.001), using the broth micro-dilution method recommended by the Clinical and Laboratory Standards Institute (CLSI). We have shown previously that robenidine can chelate calcium ions from cation-adjusted Mueller-Hinton broth, which causes the loss of activity of robenidine. Therefore, LB broth was used in this study. Additionally, considering the low solubility of robenidine and its analogues in aqueous solutions, two-fold serial dilutions of stock solutions of these compounds were prepared in 100% DMSO [21]. The MIC for ampicillin against each isolate was determined for each test to serve as an internal quality control. The MICs of isolates were determined by visual reading and using an EnSpire Multimode Plate Reader 2300 at A600nm."}},
  "data": [
    {"smiles": "CC[C@H]1OC(=O)[C@H](C)[C@@H](O[C@H]2C[C@@](C)(OC)[C@@H](O)[C@H](C)O2)[C@H](C)[C@@H](O[C@@H]2O[C@H](C)C[C@H](N(C)C)[C@H]2O)[C@](C)(O)C[C@@H](C)C(=O)[C@H](C)[C@@H](O)[C@]1(C)O", "note": "[Erythromycin, reference compound]", "values": [
      {"measurement": "MIC", "setting": "[1]", "result": "> 128", "unit": "µg/mL"},
      {"measurement": "MIC", "setting": "E. coli BW 25113 (∆AcrB)", "result": 2, "unit": "µg/mL"}
    ]}
  ]
}
